Measured values published in patent US8552135B2, “Substituted polyalkoxysiloxane compositions and methods of use” (One Unlimited, Inc., priority 2006, dated 2013).

Test system: Pseudomonas aeruginosa
Assay: burn wound infection treated with Nu-3 applied with glycerol polysiloxanes
Format: in vivo
Conditions: burn wound infections
Source text: A particularly important medical treatment application is the healing effect of some of the hydrophilic substituted polydialkoxysiloxanes on radiation burn injuries. Skin irritation and burning is common in cases where patients undergo radiation treatment associated with certain cancers. Topical application of glycerol substituted polydialkoxysilane compositions relieves pain and accelerates healing compared to treatment with commonly used burn or cortisone ointments. […] Nubiotics are a new class of antibiotic agents with broad spectrum activity.

For `CCCCOP(=O)(O)OC[C@H]1O[C@@H](n2cc(C)c(=O)[nH]c2=O)C[C@@H]1OP(=O)(O)O` [Nu-3, butyl-phosphate-5′-thymidine-3′-phosphate], which “antibacterial effectiveness of Nu-3 when applied with glycerol polysiloxanes” value is on record?
The value was “only a slight decrease in antibacterial effectiveness”.
